Results published in ChEMBL document CHEMBL3886610, “Perfluorinated 5,6-dihydro-4H-1,3-oxazin-2-amine compounds as beta-secretase inhibitors and methods of use” (2016).

Tests used:
Beta-secretase 1 [1] = molecular target: T1, Beta-secretase 1 (Homo sapiens, UniProt P56817); assay: In Vitro BACE Cell-Based Assay: The cell-based assay measures inhibition or reduction of Aβ40 in conditioned medium of test compound treated cells expressing amyloid precursor protein. Cells stably expressing Amyloid Precursor Protein (APP) were plated at a density of 40K cells/well in 96 well plates (Costar). The cells were cultivated for 24 hours at 37° C. and 5% CO2 in DMEM supplemented with 10% FBS. The test compounds were then added to cells in 10-point dose response concentrations with the starting concentration being either 100 uM or 10 uM. The compounds were diluted from stock solutions in DMSO and the final DMSO concentration of the test compounds on cells was 0.1%. After 24 h of incubation with the test compounds the supernatant conditioned media was collected and the Aβ 40 levels were determined using a sandwich ELISA.
Beta-secretase 1 [2] = molecular target: T1, Beta-secretase 1; assay: In Vitro Enzymatic BACE FRET Assay: The assay buffer used in this screen is 0.05 M acetate, pH 4.2, 10% DMSO final, 100 uM genapol (which is a nonionic detergent, below its Critical Micelle Concentration). The Beta Secretase enzyme (0.2 nM) is pre-incubated for one hour with inhibitors, typically in about 1 uL of DMSO according to a serial dilution, are added thereto. This assay is effectively started by the addition of FRET substrate (50 nM) and the combination is incubated for one hour. The FRET assay is terminated with by addition of Tris buffer, which raises the pH to neutrality, and the fluorescence is determined. The FRET substrate is a peptide with commercially available fluorophore and quencher, on opposite sides of the BACE cleavage site. Proteolytic cleavage of the FRET substrate releases quenching of fluorescence (excitation 488 nm and […]).
Cathepsin D = Cathepsin D (Homo sapiens, UniProt P07339); assay: In Vitro Enzymatic Cathepsin D FRET Assay: Recombinant Cat D was expressed in CHO cells. The assay buffer for CathepsinD is 0.05 M citrate pH 3.5, 10% DMSO final, 5 mM CHAPS. The Cat D enzyme (9 nM) is pre-incubated for one hour with inhibitors, typically in about 1 uL of DMSO according to a serial dilution, is added thereto. The assays are effectively started by the addition of different FRET substrates (20 nM for Cat D) and the combination is incubated for one hour. The FRET assay is terminated with by addition of Tris buffer, which raises the pH to neutrality, and the fluorescence is determined. The FRET substrate is a peptide with commercially available fluorophore and quencher, on opposite sides of the BACE cleavage site. […] Proteolytic cleavage of the FRET substrate releases quenching of fluorescence (Cat D excitation 500 nm and emission 580 nm).; type: cell-based
Sequence of Cathepsin D (P07339 65-162 limits assumed): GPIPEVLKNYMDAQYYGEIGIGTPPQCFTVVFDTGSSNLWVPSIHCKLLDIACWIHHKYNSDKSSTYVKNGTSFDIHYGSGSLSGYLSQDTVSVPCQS
Sequence of Cathepsin D (P07339 169-412 limits assumed): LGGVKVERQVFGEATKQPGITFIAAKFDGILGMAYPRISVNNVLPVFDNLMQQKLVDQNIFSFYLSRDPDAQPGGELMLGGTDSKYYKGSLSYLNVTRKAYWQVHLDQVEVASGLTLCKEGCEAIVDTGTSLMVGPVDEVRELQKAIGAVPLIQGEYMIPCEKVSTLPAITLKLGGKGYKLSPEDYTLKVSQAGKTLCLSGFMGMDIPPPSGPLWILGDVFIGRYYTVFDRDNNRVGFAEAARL

T1 sequence (P56817 whole entry): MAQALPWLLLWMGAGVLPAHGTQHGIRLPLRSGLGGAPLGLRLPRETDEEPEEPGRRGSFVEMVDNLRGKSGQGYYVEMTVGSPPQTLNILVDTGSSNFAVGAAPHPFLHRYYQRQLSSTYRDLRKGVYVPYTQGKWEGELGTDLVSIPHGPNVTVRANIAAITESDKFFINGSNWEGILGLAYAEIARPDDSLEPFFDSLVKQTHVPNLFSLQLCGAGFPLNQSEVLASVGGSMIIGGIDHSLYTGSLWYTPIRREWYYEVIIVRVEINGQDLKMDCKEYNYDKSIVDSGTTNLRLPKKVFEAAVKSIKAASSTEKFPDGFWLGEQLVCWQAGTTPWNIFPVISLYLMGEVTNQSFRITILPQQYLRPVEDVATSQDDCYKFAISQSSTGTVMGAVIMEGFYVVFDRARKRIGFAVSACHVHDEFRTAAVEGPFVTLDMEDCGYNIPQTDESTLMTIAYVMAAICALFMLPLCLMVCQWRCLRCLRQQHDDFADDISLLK

Row | IC50 (Beta-secretase 1 [1]) [µM] | IC50 (Beta-secretase 1 [2]) [µM] | IC50 (Cathepsin D) [µM] | IC50 (Cathepsin D; cho) [µM] | Structure (SMILES)
1 | 0.012 | 0.01 | 1190 |  | C#CCOc1ccc(C(=O)Nc2cc(F)c(F)c([C@]3(C)C[C@@H](C(F)(F)F)OC(N)=N3)c2)nc1
2 | 0.487 | 0.12 |  | > 400 | Cc1cc(OCC2CC2)cnc1C(=O)Nc1ccc(F)c([C@]2(CF)C[C@@H](C(F)(F)F)OC(N)=N2)c1

Row | Structure (SMILES) | IC50 (Beta-secretase 1 [1]) [µM] | IC50 (Beta-secretase 1 [2]) [µM] | IC50 (Cathepsin D) [µM] | IC50 (Cathepsin D; cho) [µM]
3 | COC(=O)c1ccnc(Oc2ccc(F)c([C@]3(CF)C[C@@H](C(F)(F)F)OC(N)=N3)c2)c1 | 3.56 |  |  | 
